Laboratory results taken from patent US8614327B2 (Vertex Pharmaceuticals Incorporated, priority 2004, dated 2013).

Biological target: T1, ΔF508-CFTR (Homo sapiens, UniProt P13569, DEL508-508)
T1 construct: expressed in transfected cells
Experiment: Membrane potential optical (FRET/VIPR) assay, identification of potentiator compounds
Assay type: cell-based
Details: Table 3, assay not given; for % Activity: relative efficacy
Method in brief: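 Double-addition potentiator screen: compound delivered in gluconate-substituted Cl^--free medium, membrane potential followed via CC2-DMPE/DiSBAC2(3) FRET on VIPR. Cells were ΔF508-CFTR-expressing NIH3T3 mouse fibroblasts, held 2 h at 37° C. then 24 h at 27° C. before assay.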

T1 sequence (P13569 with tags, fused parts or gaps DEL508-508): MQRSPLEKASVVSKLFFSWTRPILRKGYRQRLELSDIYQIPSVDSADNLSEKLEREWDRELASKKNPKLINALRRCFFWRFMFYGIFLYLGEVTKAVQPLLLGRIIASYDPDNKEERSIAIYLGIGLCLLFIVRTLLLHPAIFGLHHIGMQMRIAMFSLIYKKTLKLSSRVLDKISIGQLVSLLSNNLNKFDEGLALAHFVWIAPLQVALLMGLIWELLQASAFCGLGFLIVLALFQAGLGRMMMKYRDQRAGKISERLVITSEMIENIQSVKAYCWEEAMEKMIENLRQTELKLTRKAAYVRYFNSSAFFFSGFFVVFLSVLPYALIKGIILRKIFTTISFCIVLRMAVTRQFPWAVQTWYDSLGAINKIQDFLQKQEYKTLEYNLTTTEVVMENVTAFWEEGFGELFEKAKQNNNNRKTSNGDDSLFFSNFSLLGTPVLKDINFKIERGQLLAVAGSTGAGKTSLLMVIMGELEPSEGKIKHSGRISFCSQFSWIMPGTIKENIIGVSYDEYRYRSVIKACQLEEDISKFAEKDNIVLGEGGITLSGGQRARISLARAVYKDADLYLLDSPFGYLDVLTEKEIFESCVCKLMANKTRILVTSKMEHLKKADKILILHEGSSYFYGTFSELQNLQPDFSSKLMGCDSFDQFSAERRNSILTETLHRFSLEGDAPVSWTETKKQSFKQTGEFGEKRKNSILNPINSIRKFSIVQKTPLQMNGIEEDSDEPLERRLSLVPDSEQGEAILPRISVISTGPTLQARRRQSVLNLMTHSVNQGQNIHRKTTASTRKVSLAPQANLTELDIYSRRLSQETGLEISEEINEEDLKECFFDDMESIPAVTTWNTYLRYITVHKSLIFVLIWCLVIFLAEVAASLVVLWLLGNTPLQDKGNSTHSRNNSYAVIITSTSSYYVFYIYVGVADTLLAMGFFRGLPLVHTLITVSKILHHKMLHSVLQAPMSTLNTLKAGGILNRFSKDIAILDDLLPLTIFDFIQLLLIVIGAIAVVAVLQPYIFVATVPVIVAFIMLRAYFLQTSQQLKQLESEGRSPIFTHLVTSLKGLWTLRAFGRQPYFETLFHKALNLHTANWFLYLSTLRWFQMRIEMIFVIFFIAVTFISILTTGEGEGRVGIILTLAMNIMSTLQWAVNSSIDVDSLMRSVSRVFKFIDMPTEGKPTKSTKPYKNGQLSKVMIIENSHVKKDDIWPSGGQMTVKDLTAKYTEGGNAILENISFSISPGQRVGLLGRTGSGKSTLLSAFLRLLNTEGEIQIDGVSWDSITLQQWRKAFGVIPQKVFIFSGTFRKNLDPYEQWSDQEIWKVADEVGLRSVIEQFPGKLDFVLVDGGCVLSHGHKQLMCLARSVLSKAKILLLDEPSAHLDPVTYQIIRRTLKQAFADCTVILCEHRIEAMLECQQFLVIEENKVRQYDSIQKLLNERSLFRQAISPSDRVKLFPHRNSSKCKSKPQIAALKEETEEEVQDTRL

| EC50 | % Activity | Compound |
| --- | --- | --- |
| < 10 µM | ++ (between 25% to 100%) | CCc1cc2cc[nH]c2cc1NC(=O)c1c[nH]c2cccc(O)c2c1=O [Compound 591, N-(5-ethyl-1H-indol-6-yl)-5-hydroxy-4-oxo-1H-quinoline-3-carboxamide] |
| < 10 µM | ++ (between 25% to 100%) | O=C(Nc1cccc(Cc2ccccc2)c1)c1c[nH]c2ccccc2c1=O [Compound 389, N-(3-benzylphenyl)-4-oxo-1H-quinoline-3-carboxamide] |
| < 10 µM | ++ (between 25% to 100%) | O=C(Nc1ccccc1-c1cc2ccccc2s1)c1c[nH]c2ccccc2c1=O [Compound 172, N-(2-(benzo[b]thiophen-2-yl)phenyl)-1,4-dihydro-4-oxoquinoline-3-carboxamide] |
| < 10 µM | ++ (between 25% to 100%) | O=C(Nc1ccccc1-c1ccc(Cl)c(Cl)c1)c1c[nH]c2ccccc2c1=O [Compound 85, N-[2-(3,4-dichlorophenyl)phenyl]-4-oxo-1H-quinoline-3-carboxamide] |
| < 10 µM | ++ (between 25% to 100%) | N#Cc1cccc(-c2ccccc2NC(=O)c2c[nH]c3ccccc3c2=O)c1 [Compound 83, N-[2-(3-cyanophenyl)phenyl]-4-oxo-1H-quinoline-3-carboxamide] |
| < 10 µM | ++ (between 25% to 100%) | CC(C)(C)c1cc2cc[nH]c2cc1NC(=O)c1c[nH]c2ccc(S(=O)(=O)N3CCCC3)cc2c1=O [Compound 274, 4-oxo-6-pyrrolidin-1-ylsulfonyl-N-(5-tert-butyl-1H-indol-6-yl)-1H-quinoline-3-carboxamide] |
| < 10 µM | ++ (between 25% to 100%) | CC(C)(C)c1cc2cc[nH]c2cc1NC(=O)c1c[nH]c2cc(F)c(F)cc2c1=O [Compound 646, 6,7-difluoro-4-oxo-N-(5-tert-butyl-1H-indol-6-yl)-1H-quinoline-3-carboxamide] |
| < 10 µM | ++ (between 25% to 100%) | O=C(Nc1cc2c(cc1O)CCCC2)c1c[nH]c2ccccc2c1=O [Compound 56, 1,4-dihydro-N-(1,2,3,4-tetrahydro-6-hydroxynaphthalen-7-yl)-4-oxoquinoline-3-carboxamide] |
| < 10 µM | +++ (>100%) | COc1cc2c(=O)c(C(=O)Nc3cc(O)c(C(C)(C)C)cc3C(C)(C)C)c[nH]c2cc1F [Compound 709, 7-fluoro-N-(5-hydroxy-2,4-ditert-butyl-phenyl)-6-methoxy-4-oxo-1H-quinoline-3-carboxamide] |
| < 10 µM | ++ (between 25% to 100%) | CCc1cc(C#N)ccc1NC(=O)c1c[nH]c2ccccc2c1=O [Compound 451, N-(4-cyano-2-ethyl-phenyl)-4-oxo-1H-quinoline-3-carboxamide] |
| < 10 µM | ++ (between 25% to 100%) | O=C(Nc1ccccc1-c1cccc(C(F)(F)F)c1)c1c[nH]c2ccccc2c1=O [Compound 278, 4-oxo-N-[2-[3-(trifluoromethyl)phenyl]phenyl]-1H-quinoline-3-carboxamide] |
| < 10 µM | ++ (between 25% to 100%) | Cc1cccc2[nH]cc(C(=O)Nc3ccc(N4CCC[C@@H]4C)cc3C(F)(F)F)c(=O)c12 [Compound 511, (S)-5-methyl-N-(4-(2-methylpyrrolidin-1-yl)-2-(trifluoromethyl)phenyl)-4-oxo-1,4-dihydroquinoline-3-carboxamide] |
| < 10 µM | +++ (>100%) | COc1cccc(-c2ccccc2NC(=O)c2c[nH]c3ccccc3c2=O)c1F [Compound 363, N-[2-(2-fluoro-3-methoxy-phenyl)phenyl]-4-oxo-1H-quinoline-3-carboxamide] |
| 10 to 25 µM | + (<25%) | CCOc1cccc2c(=O)c(C(=O)Nc3cc4[nH]ccc4cc3C(C)(C)C)c[nH]c12 [Compound 641, 8-ethoxy-4-oxo-N-(5-tert-butyl-1H-indol-6-yl)-1H-quinoline-3-carboxamide] |
